# Laboratory results reported in patent US7964531B2, “3-phenoxy-4-pyridazinol derivatives and herbicidal composition containing the same” (Mitsui Chemicals Agro, Inc., priority 2001, dated 2011).
row,Structure (SMILES),melting point
1,"COc1ccc(C#N)cc1Oc1nnc(Cl)cc1O [Compound No. 707, 3-[(6-Chloro-4-hydroxy-3-pyridazinyl)oxy]-4-methoxybenzonitrile]",187 to 192 °C
2,"COc1ccc(OC)c(Oc2nnc(Cl)cc2O)c1 [Compound No. 709, 6-Chloro-3-(2,5-dimethoxyphenoxy)-4-pyridazinol]",150 to 152 °C
3,"Oc1cc(Cl)nnc1Oc1c(F)cccc1F [Compound No. 710, 6-Chloro-3-(2,6-difluorophenoxy)-4-pyridazinol]",209 to 213 °C
4,"CCCc1cccc(F)c1Oc1nnc(Cl)cc1O [Compound No. 716, 6-Chloro-3-(2-fluoro-6-propylphenoxy)-4-pyridazinol]",134 to 137 °C
5,"CC(C)c1cccc(F)c1Oc1nnc(Cl)cc1O [Compound No. 717, 6-Chloro-3-(2-fluoro-6-isopropylphenoxy)-4-pyridazinol]",215 to 220 °C
6,"Oc1cc(Cl)nnc1Oc1c(F)cccc1C1CC1 [Compound No. 719, 6-Chloro-3-(2-cyclopropyl-6-fluorophenoxy)-4-pyridazinol]",200 to 203 °C
7,"COc1cccc(F)c1Oc1nnc(Cl)cc1O [Compound No. 732, 6-Chloro-3-(2-fluoro-6-methoxyphenoxy)-4-pyridazinol]",190 to 194 °C
8,"Oc1cc(Cl)nnc1Oc1c(Cl)cccc1Br [Compound No. 734, 3-(2-Bromo-6-chlorophenoxy)-6-chloro-4-pyridazinol]",266 to 274 °C
9,"Oc1cc(Cl)nnc1Oc1c(Cl)cccc1I [Compound No. 735, 6-Chloro-3-(2-chloro-6-iodophenoxy)-4-pyridazinol]",262 to 264 °C
10,"CCc1cccc(Cl)c1Oc1nnc(Cl)cc1O [Compound No. 737, 6-Chloro-3-(2-chloro-6-ethylphenoxy)-4-pyridazinol]",194 to 195 °C
11,"CC(C)c1cccc(Cl)c1Oc1nnc(Cl)cc1O [Compound No. 738, 6-Chloro-3-(2-chloro-6-isopropylphenoxy)-4-pyridazinol]",218 to 233 °C
12,"Oc1cc(Cl)nnc1Oc1c(Cl)cccc1C1CC1 [Compound No. 740, 6-Chloro-3-(2-chloro-6-cyclopropylphenoxy)-4-pyridazinol]",224 to 225 °C
13,"C=C(C)Cc1cccc(Cl)c1Oc1nnc(Cl)cc1O [Compound No. 746, 6-Chloro-3-[2-chloro-6-(2-methyl-2-propenyl)phenoxy]-4-pyridazinol]",198 to 200 °C
14,"Oc1cc(Cl)nnc1Oc1c(Br)cccc1Br [Compound No. 756, 6-Chloro-3-(2,6-dibromophenoxy)-4-pyridazinol]",274 to 278 °C
15,"Cc1cccc(Br)c1Oc1nnc(Cl)cc1O [Compound No. 758, 3-(2-Bromo-6-methylphenoxy)-6-chloro-4-pyridazinol]",242 to 243 °C
16,"CCc1cccc(Br)c1Oc1nnc(Cl)cc1O [Compound No. 759, 3-(2-Bromo-6-ethylphenoxy)-6-chloro-4-pyridazinol]",215 to 217 °C
17,"CC(C)c1cccc(Br)c1Oc1nnc(Cl)cc1O [Compound No. 760, 3-(2-Bromo-6-isopropylphenoxy)-6-chloro-4-pyridazinol]",232 to 253 °C (dec.)
18,"CC(C)(C)c1cccc(Br)c1Oc1nnc(Cl)cc1O [Compound No. 761, 3-(2-Bromo-6-tert-butylphenoxy)-6-chloro-4-pyridazinol]",240 to 247 °C
19,"Oc1cc(Cl)nnc1Oc1c(Br)cccc1C1CC1 [Compound No. 762, 3-(2-Bromo-6-cyclopropylphenoxy)-6-chloro-4-pyridazinol]",230 to 232 °C
20,"COc1cccc(Br)c1Oc1nnc(Cl)cc1O [Compound No. 778, 3-(2-Bromo-6-methoxyphenoxy)-6-chloro-4-pyridazinol]",220 to 221 °C
21,"Cc1cccc(I)c1Oc1nnc(Cl)cc1O [Compound No. 780, 6-Chloro-3-(2-iodo-6-methylphenoxy)-4-pyridazinol]",250 to 252 °C
22,"CCc1cccc(I)c1Oc1nnc(Cl)cc1O [Compound No. 781, 6-Chloro-3-(2-ethyl-6-iodophenoxy)-4-pyridazinol]",242 to 244 °C
23,"CC(C)c1cccc(I)c1Oc1nnc(Cl)cc1O [Compound No. 782, 6-Chloro-3-(2-iodo-6-isopropylphenoxy)-4-pyridazinol]",250 to 255 °C
24,"Cc1cccc(C)c1Oc1nnc(Cl)cc1O [Compound No. 801, 6-Chloro-3-(2,6-dimethylphenoxy)-4-pyridazinol]",214 to 215 °C
25,"Cc1cccc(C(C)C)c1Oc1nnc(Cl)cc1O [Compound No. 803, 6-Chloro-3-(2-isopropyl-6-methylphenoxy)-4-pyridazinol]",215 to 220 °C
26,"CCC(C)c1cccc(C)c1Oc1nnc(Cl)cc1O (stereo not shown) [Compound No. 804, 3-(2-s-Butyl-6-methylphenoxy)-6-chloro-4-pyridazinol]",187 to 189 °C

row,Structure (SMILES),melting point
1,"Cc1cccc(C(C)(C)C)c1Oc1nnc(Cl)cc1O [Compound No. 805, 3-(2-tert-Butyl-6-methylphenoxy)-6-chloro-4-pyridazinol]",135 to 136 °C
2,"Cc1cccc(C2CC2(Cl)Cl)c1Oc1nnc(Cl)cc1O (stereo not shown) [Compound No. 827, 6-Chloro-3-[2-(2,2-dichlorocyclopropyl)-6-methylphenoxy]-4-pyridazinol]",213 to 215 °C
3,"CCc1cccc(CC)c1Oc1nnc(Cl)cc1O [Compound No. 846, 6-Chloro-3-(2,6-diethylphenoxy)-4-pyridazinol]",181 to 185 °C
4,"CCCc1cccc(CCC)c1Oc1nnc(Cl)cc1O [Compound No. 890, 6-Chloro-3-(2,6-dipropylphenoxy)-4-pyridazinol]",191 to 193 °C
5,"CC(C)c1cccc(C2CC2)c1Oc1nnc(Cl)cc1O [Compound No. 896, 6-Chloro-3-(2-cyclopropyl-6-isopropylphenoxy)-4-pyridazinol]",242 to 245 °C
6,"CC(C)c1cccc([N+](=O)[O-])c1Oc1nnc(Cl)cc1O [Compound No. 911, 6-Chloro-3-(2-isopropyl-6-nitrophenoxy)-4-pyridazinol]",205 to 209 °C
7,"CC(C)(C)c1cccc(C2CC2)c1Oc1nnc(Cl)cc1O [Compound No. 914, 3-(2-tert-Butyl-6-cyclopropylphenoxy)-6-chloro-4-pyridazinol]",230 to 231 °C
8,"Oc1cc(Cl)nnc1Oc1c(C2CC2)cccc1C1CC1 [Compound No. 931, 6-Chloro-3-(2,6-dicyclopropylphenoxy)-4-pyridazinol]",232 to 234 °C
9,"COc1cccc(C2CC2)c1Oc1nnc(Cl)cc1O [Compound No. 964, 6-Chloro-3-(2-cyclopropyl-6-methoxyphenoxy)-4-pyridazinol]",194 to 199 °C
10,"CCOc1cccc(C2CC2)c1Oc1nnc(Cl)cc1O [Compound No. 965, 6-Chloro-3-(2-cyclopropyl-6-ethoxyphenoxy)-4-pyridazinol]",174 to 179 °C
11,"C/C=C/c1cccc(/C=C/C)c1Oc1nnc(Cl)cc1O [Compound No. 979, 6-Chloro-3-{2,6-di[(1E)-1-propenyl]phenoxy}-4-pyridazinol]",163 to 164 °C
12,"C=CCc1cccc(CC=C)c1Oc1nnc(Cl)cc1O [Compound No. 982, 6-Chloro-3-(2,6-diallylphenoxy)-4-pyridazinol]",131 to 135 °C
13,"COc1cccc(OC)c1Oc1nnc(Cl)cc1O [Compound No. 987, 6-Chloro-3-(2,6-dimethoxyphenoxy)-4-pyridazinol]",199 to 201 °C
14,"Cc1cc(C)cc(Oc2nnc(Cl)cc2O)c1 [Compound No. 998, 6-Chloro-3-(3,5-dimethylphenoxy)-4-pyridazinol]",178 to 182 °C
15,"Cc1cc(Oc2nnc(Cl)cc2O)cc(C(C)C)c1 [Compound No. 1000, 6-Chloro-3-(3-isopropyl-5-methylphenoxy)-4-pyridazinol]",204 to 206 °C
16,"CC(C)c1cc(Oc2nnc(Cl)cc2O)cc(C(C)C)c1 [Compound No. 1007, 6-Chloro-3-(3,5-diisopropylphenoxy)-4-pyridazinol]",249 to 253 °C
17,"Oc1cc(Cl)nnc1Oc1cc(C(F)(F)F)cc(C(F)(F)F)c1 [Compound No. 1009, 3-[3,5-Bis(trifluoromethyl)phenoxy]-6-chloro-4-pyridazinol]",237 to 242 °C
18,"Cc1cc(C)c(Br)c(Oc2nnc(Cl)cc2O)c1 [Compound No. 1013, 3-(2-Bromo-3,5-dimethylphenoxy)-6-chloro-4-pyridazinol]",240 to 244 °C
19,"Cc1cc(C)c(C)c(Oc2nnc(Cl)cc2O)c1 [Compound No. 1016, 6-Chloro-3-(2,3,5-trimethylphenoxy)-4-pyridazinol]",223 to 224 °C
20,"Cc1cc(C)c(C2CC2)c(Oc2nnc(Cl)cc2O)c1 [Compound No. 1023, 6-Chloro-3-(2-cyclopropyl-3,5-dimethylphenoxy)-4-pyridazinol]",200 to 203 °C
21,"CSc1c(C)cc(C)cc1Oc1nnc(Cl)cc1O [Compound No. 1027, 6-Chloro-3-[3,5-dimethyl-2-(methylsulfanyl)phenoxy]-4-pyridazinol]",213 to 214 °C
22,"Cc1ccc(C)c(Oc2nnc(Cl)cc2O)c1Br [Compound No. 1040, 3-(2-Bromo-3,6-dimethylphenoxy)-6-chloro-4-pyridazinol]",255 to 257 °C
23,"Cc1c(F)ccc(C2CC2)c1Oc1nnc(Cl)cc1O [Compound No. 1052, 6-Chloro-3-(6-cyclopropyl-3-fluoro-2-methylphenoxy)-4-pyridazinol]",230 to 231 °C
24,"Cc1c(Cl)ccc(Br)c1Oc1nnc(Cl)cc1O [Compound No. 1053, 3-(6-Bromo-3-chloro-2-methylphenoxy)-6-chloro-4-pyridazinol]",254 to 260 °C
25,"Cc1ccc(Br)c(Oc2nnc(Cl)cc2O)c1C [Compound No. 1058, 3-(6-Bromo-2,3-dimethylphenoxy)-6-chloro-4-pyridazinol]",263 to 268 °C
26,"Cc1ccc(C2CC2)c(Oc2nnc(Cl)cc2O)c1C [Compound No. 1061, 6-Chloro-3-(6-cyclopropyl-2,3-dimethylphenoxy)-4-pyridazinol]",229 to 234 °C
